Assay results as given in US9610291B2, “Treatment of respiratory depression” (NUMEDICUS LIMITED, priority 2012, dated 2017).

What was measured:
conscious rats = assay: Opiate-induced respiratory depression; whole-body plethysmography in conscious rats; type: in vivo; conditions: for increase in the respiratory activity: before morphine
Method: Whole-body plethysmography is used to assess respiratory rate (fR, in breaths per minute) and tidal volume (VT, in microliters per gram) in conscious rats. Animals are placed in a recording chamber (˜700 ml) flushed continuously with a humidified mixture of 79% nitrogen and 21% oxygen (temperature 22-24° C.). Level of carbon dioxide (CO2) in the chamber is monitored online using a fast-response CO2 analyser. Animals are allowed ˜40 min to acclimatize to the chamber environment at normoxia-normocapnia (21% oxygen, 79% nitrogen and <0.3% CO2) before measurements of baseline ventilation are taken.
Respiratory depression is induced in conscious rats by intramuscular (10 mg/kg) administration of morphine.
Data are acquired using Power1401 interface, saved and analyzed off-line using Spike2 software (CED Limited, Cambridge, UK).
Parameters measured included fR—respiratory rate (in breaths per minute); VT—tidal volume (in microliters per gram of body weight); VE—minute ventilation fR×VT (in microliters per gram of body weight per minute).
The data were analysed by ANOVA followed by the Tukey-Kramer's post hoc test, Student's t-test, or non-parametric Wilcoxon-Mann-Whitney U test, as appropriate. Data are presented as means±SEM.

[1] = test system: Methyl-CpG-binding protein 2 (Mecp) null mice; assay: Rett's syndrome model; plethysmography in Mecp2 null mice; type: in vivo; conditions: tianeptine 10 mg/kg i.p. in saline, 5.6 Hz before treatment, p=0.037, paired t test
Method: Methyl-CpG-binding protein 2 (Mecp) null mice were of the B6.129P2(C)-Mecp2^tm1.1Bird strain. Mice were produced and genotyped using published methods (Miralvès J, Magdeleine E, Joly E. Design of an improved set of oligonucleotide primers for genotyping MeCP2^tm1.1Bird KO mice by PCR. Mol Neurodegener. 2007; 2:16; Bissonnette J M, Knopp S J. Separate respiratory phenotypes in methyl-CpG-binding protein 2 (Mecp2) deficient mice. Pediatr Res. 2006; 59:513-518).
Breathing was recorded over a 60 min control period following drug treatment in the same way as for the respiratory depression experiments, with the same equipment and software. After the recording sessions, mice were euthanized with CO2.

CN1c2ccccc2C(NCCCCCCC(=O)O)c2ccc(Cl)cc2S1(=O)=O (centres unmarked) [tianeptine, 7-[(3-chloro-6,11-dihydro-6-methyl-dibenzo[c,f][1,2]thiazepin-11-yl)amino]heptanoic acid S,S-dioxide]
increase in the respiratory activity (conscious rats; tianeptine 2 mg/kg ip, 5 min after administration, conscious rats, p<0.05): ~30%
morphine-induced respiratory depression (conscious rats; tianeptine 2 mg/kg ip, morphine 10 mg/kg intramuscular 5 minutes after tianeptine, conscious rats): appears to prevent morphine-induced respiratory depression
increase in the respiratory activity (conscious rats; tianeptine 10 mg/kg, rats): not observed
morphine-induced respiratory depression (conscious rats; tianeptine 10 mg/kg, followed by morphine 10 mg/kg intramuscular, rats): prevented
peak dominant frequency (respiratory frequency pattern) after drug treatment [1]: 4.8 Hz
